Consider 39 compounds from patent publication US12679832B2, “Compounds and their uses as CD38 inhibitors” (Nanjing Immunophage Biotech Co., Ltd., priority 2021, dated 2026).

The assay deals with T1, hCD38 Enzyme (Homo sapiens, UniProt P28907).
T1 construct: purchased Sino Biological Inc 10818-H08H
T1 sequence (P28907 43-300 limits assumed): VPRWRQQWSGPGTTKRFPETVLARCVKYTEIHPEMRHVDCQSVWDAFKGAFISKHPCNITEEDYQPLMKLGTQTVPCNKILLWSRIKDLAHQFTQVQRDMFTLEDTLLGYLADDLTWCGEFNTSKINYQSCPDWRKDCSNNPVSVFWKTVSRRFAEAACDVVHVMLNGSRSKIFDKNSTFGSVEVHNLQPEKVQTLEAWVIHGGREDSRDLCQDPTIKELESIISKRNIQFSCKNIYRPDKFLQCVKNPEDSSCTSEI
Put plainly: CD38 hydrolase enzymatic assay. The assay is classed as biochemical. Particulars: rhCD38, ε-NAD substrate, 25° C., point reading time 20 mins; read-out: hCD38 Enzyme inhibition IC50. The protocol: Also, a blank sample was prepared with 50 μl of sucrose buffer and no test compounds.
The dynamic reading was performed at 25° C. with excitation light of 300 nm and emission light of 410 nm on the enzyme marker by contacting the above-prepared rhCD38 enzyme working fluid and the above-prepared solutions of the test compounds disclosed herein or the solution of the control. The readings were recorded for a total of 1 hour, and the data were analyzed with the point reading time of 20 mins.
Fluorescence was recorded by a microplate reader. Individual excel files containing fluorescence data were exported and the results were plotted against various drug concentrations and analyzed in GraphPad Prism 7.0 for concentration curve generation.
In the case of `N#Cc1cc(C(=O)Nc2ccc(F)cc2)nc(-n2ccnc2)n1` [compound 187, 6-cyano-N-(4-fluorophenyl)-2-(1H-imidazol-1-yl)pyrimidine-4-carboxamide], the half-inhibitory concentration (IC50) was 2 nM.
With `CO[C@H]1CC[C@H](NC(=O)c2cccc(-c3nnco3)n2)CC1` [compound 19, N-((1r,4r)-4-methoxycyclohexyl)-6-(1,3,4-oxadiazol-2-yl) picolinamide] the figure was more than 10000 nM.
As for `COc1cc(C(=O)N[C@H]2CC[C@H](OC)CC2)nc(-n2ccnc2)n1` [compound 105, 2-(1H-imidazol-1-yl)-6-methoxy-N-((1r,4r)-4-methoxycyclohexyl) pyrimidine-4-carboxamide], the figure is 20 nM; as for `CC1(C)CCC(NC(=O)c2cc(C(F)(F)F)nc(-n3ccnc3)n2)CC1` [compound 138, N-(4,4-dimethylcyclohexyl)-2-(1H-imidazol-1-yl)-6-(trifluoromethyl) pyrimidine-4-carboxamide], 76 nM.
Consider `Nc1ccc(-n2ccnc2)nc1C(=O)NC1CCCCC1` [compound 61, 3-amino-N-cyclohexyl-6-(1H-imidazol-1-yl)picolinamide], for which the IC50 stood at 15 nM.
As for `C[C@H]1CC[C@H](NC(=O)c2cc(C(F)(F)F)cc(-n3ccnc3)n2)CC1` [compound 158, 6-(1H-imidazol-1-yl)-N-((1r,4r)-4-methylcyclohexyl)-4-(trifluoromethyl) picolinamide], the figure is 37 nM.
As for `CO[C@H]1CC[C@H](NC(=O)c2cc(OC3CCC3)nc(-n3ccnc3)n2)CC1` [compound 104, 6-cyclobutoxy-2-(1H-imidazol-1-yl)-N-((1r,4r)-4-methoxycyclohexyl)pyrimidine-4-carboxamide], the figure is 26 nM.
With `CO[C@H]1CC[C@H](NC(=O)c2cc(-c3cncs3)ccc2N)CC1` [compound 7, 2-amino-N-((1r,4r)-4-methoxycyclohexyl)-5-(thiazol-5-yl) benzamide] the figure was more than 10000 nM; with `COc1cc(C(=O)N[C@H]2CC[C@H](OC)CC2)nc(-n2ccnc2)c1` [compound 4, 6-(1H-imidazol-1-yl)-4-methoxy-N-((1r,4r)-4-methoxycyclohexyl)picolinamide], 40 nM.
For the compound `O=C(NCC1CCCCC1)c1cncc(-n2ccnc2)n1` [compound 37, N-(cyclohexylmethyl)-6-(1H-imidazol-1-yl)pyrazine-2-carboxamide], the IC50 was 348 nM.
With `O=C(NC1CCCCC1)c1cccc(-n2ccnc2)n1` [compound 49, N-cyclohexyl-6-(1H-imidazol-1-yl)picolinamide], the IC50 was determined as 70 nM.
Turning to `O=C(NCc1ccccc1)c1cncc(-n2ccnc2)n1` [compound 38, N-benzyl-6-(1H-imidazol-1-yl)pyrazine-2-carboxamide], the IC50 came to 456 nM.
With `CC(C)(C)NC(=O)c1cncc(-n2ccnc2)n1` [compound 34, N-(tert-butyl)-6-(1H-imidazol-1-yl)pyrazine-2-carboxamide] the figure was 3910 nM; with `N#Cc1ccc(NC(=O)c2cc(C(F)(F)F)nc(-n3ccnc3)n2)cn1` [compound 164, N-(6-cyanopyridin-3-yl)-2-(1H-imidazol-1-yl)-6-(trifluoromethyl) pyrimidine-4-carboxamide], 4 nM.
`CO[C@H]1CC[C@H](NC(=O)c2cccc(-c3ccno3)n2)CC1` [compound 17, 6-(isoxazol-5-yl)-N-((1r,4r)-4-methoxycyclohexyl)picolinamide]: the IC50 is more than 10000 nM.
As for `C[C@H]1CC[C@H](NC(=O)c2cc(OC3COC3)nc(-n3ccnc3)n2)CC1` [Compound 150], the figure is 16 nM; as for `CC(NC(=O)c1cncc(-n2ccnc2)n1)C1CCCCC1` (stereo not drawn) [compound 39, N-(1-cyclohexylethyl)-6-(1H-imidazol-1-yl)pyrazine-2-carboxamide], 225 nM; as for `O=C(Nc1ccc(F)cc1)c1cc(C(F)(F)F)nc(-n2ccnc2)n1` [compound 172, N-(4-fluorophenyl)-2-(1H-imidazol-1-yl)-6-(trifluoromethyl) pyrimidine-4-carboxamide], 8.2 nM.
With `COc1ccc(C(=O)N[C@H]2CC[C@H](OC)CC2)nc1-n1ccnc1` [compound 74, 6-(1H-imidazol-1-yl)-5-methoxy-N-((1r,4r)-4-methoxycyclohexyl) picolinamide] the figure was 4040 nM; with `CO[C@H]1CC[C@H](NC(=O)c2cc(-n3ccnc3)ncc2N)CC1` [compound 69, 5-amino-2-(1H-imidazol-1-yl)-N-((1r,4r)-4-methoxycyclohexyl) isonicotinamide], 111 nM; with `Nc1ncc(-n2ccnc2)nc1C(=O)NC1CCCCC1` [compound 42, 3-amino-N-cyclohexyl-6-(1H-imidazol-1-yl)pyrazine-2-carboxamide], 11 nM.
With `CO[C@H]1CC[C@H](NC(=O)c2nc(-n3ccnc3)ccc2Cl)CC1` [compound 75, 3-chloro-6-(1H-imidazol-1-yl)-N-((1r,4r)-4-methoxycyclohexyl) picolinamide], the IC50 was 389 nM.
Take `CO[C@H]1CC[C@H](NC(=O)c2cc(C#N)nc(-n3ccnc3)n2)CC1` [compound 106, 6-cyano-2-(1H-imidazol-1-yl)-N-((1r,4r)-4-methoxycyclohexyl)pyrimidine-4-carboxamide]: the IC50 is 18 nM.
For `CO[C@H]1CC[C@H](NC(=O)c2cc(-n3ccnc3)cc(=O)[nH]2)CC1` [compound 3, 4-(1H-imidazol-1-yl)-N-((1r,4r)-4-methoxycyclohexyl)-6-oxo-1.6-dihydropyridine-2-carboxamide], the IC50 was more than 10000 nM.
With `CN(C)CCOc1cc(F)cc(NC(=O)c2cc(C(F)(F)F)nc(-n3ccnc3)n2)c1` [compound 181, N-(3-(2-(dimethylamino)ethoxy)-5-fluorophenyl)-2-(1H-imidazol-1-yl)-6-(trifluoromethyl) pyrimidine-4-carboxamide] the figure was 25.4 nM.
With `CO[C@H]1CC[C@H](NC(=O)c2cc(-n3ccnn3)cc3cc[nH]c23)CC1` [compound 54, N-((1r,4r)-4-methoxycyclohexyl)-5-(1H-1,2,3-triazol-1-yl)-1H-indole-7-carboxamide] the figure was 6850 nM.
As for `N#Cc1cncc(NC(=O)c2cc(C(F)(F)F)nc(-n3ccnc3)n2)c1` [compound 169, N-(5-cyanopyridin-3-yl)-2-(1H-imidazol-1-yl)-6-(trifluoromethyl) pyrimidine-4-carboxamide], the figure is 20 nM.
With `O=C(Nc1ccc(F)c(F)c1)c1cc(C(F)(F)F)nc(-n2ccnc2)n1` [compound 173, N-(3,4-difluorophenyl)-2-(1H-imidazol-1-yl)-6-(trifluoromethyl) pyrimidine-4-carboxamide], the IC50 amounted to 6.8 nM.
As for `CO[C@H]1CC[C@H](NC(=O)c2cc(N(C)C)nc(-n3ccnc3)n2)CC1` [compound 23, 6-(dimethylamino)-2-(1H-imidazol-1-yl)-N-((1r,4r)-4-methoxycyclohexyl)pyrimidine-4-carboxamide], the figure is 45 nM; as for `CO[C@H]1CC[C@H](NC(=O)c2cc(-c3cncs3)cc3cc[nH]c23)CC1` [compound 29, N-((1r,4r)-4-methoxycyclohexyl)-5-(thiazol-5-yl)-1H-indole-7-carboxamide], 25 nM; as for `CO[C@H]1CC[C@H](NC(=O)c2nc(-n3ccnc3)ccc2N)CC1` [compound 60, 3-amino-6-(1H-imidazol-1-yl)-N-((1r,4r)-4-methoxycyclohexyl) picolinamide], 17 nM.
As for `O=C(Nc1ccccc1)c1cccc(-n2ccnc2)n1` [compound 81, 6-(1H-imidazol-1-yl)-N-phenylpicolinamide], the figure is 15 nM; as for `Cc1cn(-c2cncc(C(=O)NC3CCCCC3)n2)cn1` [compound 78, N-cyclohexyl-6-(4-methyl-1H-imidazol-1-yl)pyrazine-2-carboxamide], more than 10000 nM; as for `O=C(NC1CCCCC1)c1cc(N2CCCCC2)nc(-n2ccnc2)n1` [compound 144, N-cyclohexyl-2-(1H-imidazol-1-yl)-6-(piperidin-1-yl)pyrimidine-4-carboxamide], 46 nM.
With `COC(C)(C)c1cc(F)cc(NC(=O)c2cc(C(F)(F)F)nc(-n3ccnc3)n2)c1` [compound 179, N-(3-fluoro-5-(2-methoxypropan-2-yl)phenyl)-2-(1H-imidazol-1-yl)-6-(trifluoromethyl) pyrimidine-4-carboxamide] the figure was 586 nM; with `CO[C@H]1CC[C@H](NC(=O)c2cc(C)nc(-n3ccnc3)n2)CC1` [compound 99, 2-(1H-imidazol-1-yl)-N-((1r,4r)-4-methoxycyclohexyl)-6-methylpyrimidine-4-carboxamide], 9 nM; with `O=C(Nc1cccc(F)c1)c1nc(-n2ccnc2)ccc1C(F)(F)F` [compound 159, N-(3-fluorophenyl)-6-(1H-imidazol-1-yl)-3-(trifluoromethyl) picolinamide], 34 nM.
For `CO[C@H]1CC[C@H](NC(=O)c2cc(C)cc(-n3ccnc3)n2)CC1` [compound 52, 6-(1H-imidazol-1-yl)-N-((1r,4r)-4-methoxycyclohexyl)-4-methylpicolinamide], the IC50 is 55 nM.
With `CO[C@H]1CC[C@H](NC(=O)c2nc(-n3ccnc3)ccc2O)CC1` [compound 71, 3-hydroxy-6-(1H-imidazol-1-yl)-N-((1r,4r)-4-methoxycyclohexyl) picolinamide] the figure was 73 nM.
